# Tests used:
# [1] = tested on: Human umbilical vein endothelial cells (HUVECs); assay: Measurement of 50% lethal concentration for HUVEC (alamarBlue); format: cell-based; conditions: 72 hours incubation, 250 μM = maximum concentration dissolved in DMSO
# Experimental: Human umbilical vein endothelial cells (HUVECs) (ATCC CRL-1730) were obtained from American Type Culture Collection and precultivated in an Endothelial Cell Growth Medium (CELL APPLICATIONS, USA) containing 10% bovine fetal serum supplemented with 1% Antibiotic-Antimycotic solution (GIBCO BRL, USA) under a 5% CO2 atmosphere at 37° C.
# A Matrigel matrix (BD Biosciences, USA) was melted and kept at 4° C. on ice, and then, 50 μL of the matrix were transferred to each well of a 96-well tissue culture plate. The plate was incubated at 37° C. for at least one hour to solidify the matrix solution. […]
# After the incubation, 20 μL of a 90% alamarBlue reagent were added to individual wells, and incubated for an additional 6 hours. Then, the fluorescence intensity of each well was measured at an excitation wavelength of 530 nm and an emission wavelength of 590 nm using a Spectrafluor Plus plate reader to count the number of living cells. […] The 50% lethal concentration was calculated as the concentration at which the number of living cells was 50% of the number of cells at the start of the experiment.
# [2] = tested on: hair regrowth in telogen-phase C3H/HeN Slc mice; assay: Examination of trichogenous effect (hair regrowth on shaved back of mice); format: in vivo; conditions: 10 mg/mL test solution
# Experimental: The trichogenous effect in mice of the astaxanthin monoester obtained in Preparation Example 1 was examined. The astaxanthin monoester obtained in Preparation Example 1 was dissolved in 20% (v/v) ethanol-containing a-tocopherol to prepare a 10 mg/mL astaxanthin monoester test solution. Male 7-week-old C3H/HeN Slc (SPF) mice were divided into three groups, i.e., a test group, a positive control group, and a negative control group, of 10 each. It should be noted that 45 to 95-day-old C3H mice are in the telogen phase of the hair cycle. Hairs were shaved from a site measuring 5 cm x 3 cm on the back of each mouse, and the above-described test solution was applied to that site in a dosage of 0.05 mL once a day for 18 days to observe the conditions of hair regrowth. In the positive control group, 1% (w/v) minoxidil (in 50% (v/v) ethanol), and in the negative control group, 50% (v/v) ethanol were applied. The conditions of hair regrowth were evaluated, using the following scoring criteria, expressed in terms of percentage of the surface area of the test site where the observed change occurred.
# 1: skin changed to gray (in less than 50% of area)
# 2: skin changed to gray (in 50% or more of area) and hair regrowth was observed (in less than 50% of area)
# 3: skin changed to gray (in 50% or more of area) and hair regrowth was observed (in 50% or more but less than 80% of area)
# 4: hair regrowth was observed distinctly (in 80% or more but less than 100% of area)
# 5: hair regrowth was observed distinctly (in 100% of area)
substance,measurement,setting,value
astaxanthin monoester,LC50 (50% lethal concentration),[1],≥ 250 µM
same,trichogenous effect (hair regrowth scoring) compared to negative control group,"[2]; 0.05 mL applied once a day for 18 days to shaved back of male C3H/HeN mice, vs 50% ethanol",markedly superior trichogenous effect
same,appearance (onset) of trichogenous effect compared to positive control group,"[2]; 0.05 mL once a day for 18 days, topical, mice, vs 1% (w/v) minoxidil",appeared a little later than in the positive control group
same,rate of progress of hair regrowth after the hairs begun to grow,"[2]; 0.05 mL once a day for 18 days, topical, mice, vs 1% minoxidil and negative control",higher than that in the positive control group
